Tested on: PDC 899932-113-R3-J6 complex spheroid viability
Experiment: Anticancer human tumor 899932-113-R3-J6-PDC patient-derived melanoma cell line growth inhibition [RAS]
Settings: for IC50: curve of first compound; for viability, T/C: stronger effect = lower value
Summary of the method: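 Tumour cells grown as complex spheroids with HUVEC endothelial cells and mesenchymal stem cells, treated with RAS pathway inhibitor combinations. Each agent spans half-log steps from near clinical Cmax, or 10 microM where Cmax is unknown.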

[1] = second compound 0.000949 µM, first compound 0.0316 µM
[2] = second compound 0.000949 µM, first compound 0.1 µM
[3] = second compound 0.000949 µM, first compound 0.316 µM
[4] = second compound 0.000949 µM, first compound 1 µM
[5] = second compound 0.000949 µM, first compound 3.16 µM
[6] = second compound 0.000949 µM, first compound 10 µM
[7] = second compound 0.003 µM, first compound 0.0316 µM
[8] = second compound 0.003 µM, first compound 0.1 µM
[9] = second compound 0.003 µM, first compound 0.316 µM
[10] = second compound 0.003 µM, first compound 1 µM
[11] = second compound 0.003 µM, first compound 3.16 µM
[12] = second compound 0.003 µM, first compound 10 µM
[13] = second compound 0.00949 µM, first compound 0.0316 µM
[14] = second compound 0.00949 µM, first compound 0.1 µM
[15] = second compound 0.00949 µM, first compound 0.316 µM
[16] = second compound 0.00949 µM, first compound 1 µM
[17] = second compound 0.00949 µM, first compound 3.16 µM
[18] = second compound 0.00949 µM, first compound 10 µM
[19] = second compound 0.03 µM, first compound 0.0316 µM
[20] = second compound 0.03 µM, first compound 0.1 µM
[21] = second compound 0.03 µM, first compound 0.316 µM
[22] = second compound 0.03 µM, first compound 1 µM
[23] = second compound 0.03 µM, first compound 3.16 µM
[24] = second compound 0.03 µM, first compound 10 µM
[25] = second compound 0.0949 µM, first compound 0.0316 µM
[26] = second compound 0.0949 µM, first compound 0.1 µM
[27] = second compound 0.0949 µM, first compound 0.316 µM
[28] = second compound 0.0949 µM, first compound 1 µM
[29] = second compound 0.0949 µM, first compound 3.16 µM
[30] = second compound 0.0949 µM, first compound 10 µM
[31] = second compound 0.3 µM, first compound 0.0316 µM
[32] = second compound 0.3 µM, first compound 0.1 µM
[33] = second compound 0.3 µM, first compound 0.316 µM
[34] = second compound 0.3 µM, first compound 1 µM
[35] = second compound 0.3 µM, first compound 3.16 µM
[36] = second compound 0.3 µM, first compound 10 µM
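Throughout, for viability, T/C: spheroids exposed to agents for seven days before readout; 100% = DMSO vehicle control wells.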

`CC1(O)CCCC1n1c(=O)c(C(F)F)cc2cnc(NC3CCN(S(C)(=O)=O)CC3)nc21` (stereo not drawn) + CCn1c(-c2cccnc2C(C)OC)c2c3cc(ccc31)N1CCOC(CC(NC(=O)C(C(C)C)N(C)C(=O)C3(F)CCN(C(=O)C#CC(C)(C)N(C)C)CC3)C(=O)N3CCCC(N3)C(=O)OCC(C)(C)C2)C1 was tested, and the IC50 (second compound 0.000949 µM) was 3.73 µM, the IC50 (second compound 0.003 µM) was 3.71 µM and the IC50 (second compound 0.00949 µM) was 2.84 µM. The IC50 (second compound 0.03 µM) was 3.47 µM, the IC50 (second compound 0.0949 µM) was 2.71 µM and the IC50 (second compound 0.3 µM) was 3.41 µM. The viability, T/C [1] was 98.1%, the viability, T/C [2] was 86.7% and the viability, T/C [3] was 72.3%. For the same molecule, the viability, T/C [4] was 68.8%, the viability, T/C [5] was 56.8% and the viability, T/C [6] was 33.6%. It also gave a viability, T/C [7] of 99.8%, a viability, T/C [8] of 83% and a viability, T/C [9] of 71.6%. It also gave a viability, T/C [10] of 69.7%, a viability, T/C [11] of 59% and a viability, T/C [12] of 32.3%. For the same molecule, the viability, T/C [13] was 107%, the viability, T/C [14] was 84.5% and the viability, T/C [15] was 69.7%. The viability, T/C [16] was 63.4%, the viability, T/C [17] was 55.9% and the viability, T/C [18] was 32.9%. For the same molecule, the viability, T/C [19] was 110%, the viability, T/C [20] was 79.9% and the viability, T/C [21] was 69.6%. It also gave a viability, T/C [22] of 70.1%, a viability, T/C [23] of 59.7% and a viability, T/C [24] of 32.3%. For the same molecule, the viability, T/C [25] was 94%, the viability, T/C [26] was 80.2% and the viability, T/C [27] was 66.3%. For the same molecule, the viability, T/C [28] was 64.8%, the viability, T/C [29] was 55.6% and the viability, T/C [30] was 27%. It also gave a viability, T/C [31] of 88.5%, a viability, T/C [32] of 77.8% and a viability, T/C [33] of 69.3%. The viability, T/C [34] was 63.7%, the viability, T/C [35] was 59.6% and the viability, T/C [36] was 23.1%.

`CCC(CC)c1cc(NC2CCC(N)C2)n2nccc2n1` (stereo not drawn) + CCn1c(-c2cccnc2C(C)OC)c2c3cc(ccc31)N1CCOC(CC(NC(=O)C(C(C)C)N(C)C(=O)C3(F)CCN(C(=O)C#CC(C)(C)N(C)C)CC3)C(=O)N3CCCC(N3)C(=O)OCC(C)(C)C2)C1 showed an IC50 (second compound 0.000949 µM) of 1.46 µM, an IC50 (second compound 0.003 µM) of 1.58 µM and an IC50 (second compound 0.00949 µM) of 1.5 µM. For the same molecule, the IC50 (second compound 0.03 µM) was 1.49 µM, the IC50 (second compound 0.0949 µM) was 1.31 µM and the IC50 (second compound 0.3 µM) was 1.22 µM. For the same molecule, the viability, T/C [1] was 104%, the viability, T/C [2] was 86.7% and the viability, T/C [3] was 94.8%. For the same molecule, the viability, T/C [4] was 73.8%, the viability, T/C [5] was 1.84% and the viability, T/C [6] was 0.94%. It also gave a viability, T/C [7] of 95.8%, a viability, T/C [8] of 85.5% and a viability, T/C [9] of 90.9%. For the same molecule, the viability, T/C [10] was 81.7%, the viability, T/C [11] was 1.51% and the viability, T/C [12] was 1.01%. The viability, T/C [13] was 94.7%, the viability, T/C [14] was 82.3% and the viability, T/C [15] was 87.1%. The viability, T/C [16] was 76.7%, the viability, T/C [17] was 1.18% and the viability, T/C [18] was 0.88%. For the same molecule, the viability, T/C [19] was 86.7%, the viability, T/C [20] was 77.1% and the viability, T/C [21] was 85.3%. The viability, T/C [22] was 75.9%, the viability, T/C [23] was 1.56% and the viability, T/C [24] was 0.52%. The viability, T/C [25] was 80.2%, the viability, T/C [26] was 83.4% and the viability, T/C [27] was 87.5%. It also gave a viability, T/C [28] of 64.8%, a viability, T/C [29] of 1.71% and a viability, T/C [30] of 0.88%. The viability, T/C [31] was 79.8%, the viability, T/C [32] was 73.5% and the viability, T/C [33] was 77.9%. The viability, T/C [34] was 60%, the viability, T/C [35] was 1.44% and the viability, T/C [36] was 0.36%.

Work on `Cc1nc(N2CCC3(CC2)COC(C)C3N)c(CO)nc1Sc1ccnc(N)c1Cl` (stereo not drawn) + CCn1c(-c2cccnc2C(C)OC)c2c3cc(ccc31)N1CCOC(CC(NC(=O)C(C(C)C)N(C)C(=O)C3(F)CCN(C(=O)C#CC(C)(C)N(C)C)CC3)C(=O)N3CCCC(N3)C(=O)OCC(C)(C)C2)C1 yielded an IC50 (second compound 0.000949 µM) greater than 10 µM, an IC50 (second compound 0.003 µM) greater than 10 µM and an IC50 (second compound 0.00949 µM) greater than 10 µM. For the same molecule, the IC50 (second compound 0.03 µM) was greater than 10 µM, the IC50 (second compound 0.0949 µM) was greater than 10 µM and the IC50 (second compound 0.3 µM) was greater than 10 µM. For the same molecule, the viability, T/C [1] was 109%, the viability, T/C [2] was 102% and the viability, T/C [3] was 108%. It also gave a viability, T/C [4] of 113%, a viability, T/C [5] of 112% and a viability, T/C [6] of 118%. It also gave a viability, T/C [7] of 102%, a viability, T/C [8] of 96.8% and a viability, T/C [9] of 107%. For the same molecule, the viability, T/C [10] was 116%, the viability, T/C [11] was 109% and the viability, T/C [12] was 110%. It also gave a viability, T/C [13] of 93.2%, a viability, T/C [14] of 95.5% and a viability, T/C [15] of 112%. For the same molecule, the viability, T/C [16] was 121%, the viability, T/C [17] was 114% and the viability, T/C [18] was 110%. The viability, T/C [19] was 91.7%, the viability, T/C [20] was 89.3% and the viability, T/C [21] was 108%. For the same molecule, the viability, T/C [22] was 110%, the viability, T/C [23] was 108% and the viability, T/C [24] was 106%. It also gave a viability, T/C [25] of 91.2%, a viability, T/C [26] of 85.8% and a viability, T/C [27] of 103%. The viability, T/C [28] was 94.2%, the viability, T/C [29] was 105% and the viability, T/C [30] was 107%. The viability, T/C [31] was 82.5%, the viability, T/C [32] was 80.9% and the viability, T/C [33] was 95.6%. For the same molecule, the viability, T/C [34] was 81.6%, the viability, T/C [35] was 94.3% and the viability, T/C [36] was 90.7%.

Work on `NC1c2ccccc2OC12CCN(c1cnc3c(N4CCCc5ncccc54)n[nH]c3n1)CC2` (stereo not drawn) + CCn1c(-c2cccnc2C(C)OC)c2c3cc(ccc31)N1CCOC(CC(NC(=O)C(C(C)C)N(C)C(=O)C3(F)CCN(C(=O)C#CC(C)(C)N(C)C)CC3)C(=O)N3CCCC(N3)C(=O)OCC(C)(C)C2)C1 yielded an IC50 (second compound 0.000949 µM) greater than 10 µM, an IC50 (second compound 0.003 µM) greater than 10 µM and an IC50 (second compound 0.00949 µM) greater than 10 µM. The IC50 (second compound 0.03 µM) was greater than 10 µM, the IC50 (second compound 0.0949 µM) was greater than 10 µM and the IC50 (second compound 0.3 µM) was greater than 10 µM. It also gave a viability, T/C [1] of 113%, a viability, T/C [2] of 102% and a viability, T/C [3] of 112%. It also gave a viability, T/C [4] of 120%, a viability, T/C [5] of 114% and a viability, T/C [6] of 101%. It also gave a viability, T/C [7] of 113%, a viability, T/C [8] of 112% and a viability, T/C [9] of 111%. The viability, T/C [10] was 120%, the viability, T/C [11] was 111% and the viability, T/C [12] was 110%. For the same molecule, the viability, T/C [13] was 112%, the viability, T/C [14] was 112% and the viability, T/C [15] was 110%. The viability, T/C [16] was 129%, the viability, T/C [17] was 120% and the viability, T/C [18] was 109%. It also gave a viability, T/C [19] of 112%, a viability, T/C [20] of 116% and a viability, T/C [21] of 105%. For the same molecule, the viability, T/C [22] was 117%, the viability, T/C [23] was 112% and the viability, T/C [24] was 106%. The viability, T/C [25] was 100%, the viability, T/C [26] was 102% and the viability, T/C [27] was 94.4%. The viability, T/C [28] was 113%, the viability, T/C [29] was 108% and the viability, T/C [30] was 98.5%. For the same molecule, the viability, T/C [31] was 97.7%, the viability, T/C [32] was 85.1% and the viability, T/C [33] was 95.7%. The viability, T/C [34] was 96.8%, the viability, T/C [35] was 92.6% and the viability, T/C [36] was 85.7%.
